Measured values taken from patent publication US12465658B2, “Eye drop composition” (Aratana Therapeutics, Inc., priority 2012, dated 2025).
Read-outs that look alike come from different tables or passages of the source.

Experiments:
[1] = Solubility of A-5021 by slurry experiments (24 h equilibration, filtration, HPLC of filtrate); type: physicochemical; conditions: for solubility at 24 h: thermodynamic from solid
Procedure: In order to determine the solubility of A-5021 (i.e. 2-amino-9-[[(1S,2R)-1,2-bis(hydroxymethyl)cyclopropyl]methyl]-1,9-dihydro-6H-Purin-6-one), a first series of 33 slurry experiments was performed. Within these experiments a set of 33 different systems (varying in i.e. buffers, co-solvents, solubilizing agents) were considered. The following six buffers were used: HCl buffer (pH 2), phosphate buffer (pH 6.8 and 7.4), tris(hydroxymethyl)aminoethane buffer (pH 9), sodium carbonate/bicarbonate (pH 10.8), and potassium dihydrogen phosphate (pH 12). As co-solvents dimethyl sulfoxide (DMSO), dimethyl acetamide (DMA), N-methyl pyrrolidone (NMP), ethanol (EtOH), and propylene glycol were used with varying concentrations. The solubilizing agents used were propylene glycol, glycerin, solutol HS 15, polysorbate 80, beta-cyclodextrin, hydroxypropyl beta-cyclodextrin (Kleptose® HPB), cremophor EL, cremophor RH 60, polyethylene glycol (PEG) 300, PEG 400, and sulfobutylether beta-cyclodextrin (e.g. Captisol®). The solubility was determined by filtration of the slurries after 24 h equilibration time. The A-5021 concentration in the filtrates was analyzed by High-Performance Liquid Chromatography (HPLC), from which the corresponding solubility was calculated.
Two different buffer systems, co-solvents, and solubilizing agents were considered with focus on systems that gave the best results as reported above. The solubility was again determined by filtration of the slurries after 24 h equilibration time. The A-5021 concentration in the filtrates was analyzed by HPLC, from which the corresponding solubility was calculated. Overall, no greater solubility values than the already reported values were found. […] A close to neutral pH buffered system (80% v/v propylene glycol and 20% v/v phosphate buffer at pH 7.4), which is of interest to develop ophthalmic solutions (allowing topical application of A-5021 to herpes virus-infected eyes) allows to solubilize A-5021 at 8.18 mg/mL. When 2-hydroxypropyl beta-cyclodextrin (HPBC) is used as a solubilizing agent instead of propylene glycol, the solubility of A-5021 decreases compared to the propylene glycol buffered systems.

[2] = test system: herpes simplex virus type 2 (HSV-2); conditions: in vivo, reported; cited from earlier work
herpes virus = conditions: Neyts et al. 2001; Iwayama et al. 1998; cited from earlier work
[3] = background; more than 1 mg/mL typically requires pH below 4 or above 10; cited from earlier work
[4] = Vehicle candidates tested to solubilize A-5021 at 5 mg/mL at neutral pH; type: physicochemical; conditions: aqueous with cosolvent or surfactant or cyclodextrin, pH 6.98-7.1 1, read-out: concentration of A-5021 solubilized
Procedure: Based on the above indicated results and in order to be able to formulate A-5021 at pharmacologically active concentrations (preferably about […]), it was considered to investigate of additional solubilizing agents and/or keeping a high amount of propylene glycol at neutral pH. In total 28 vehicle candidates were tested to solubilize A-5021 at 5 mg/mL at neutral pH: propylene glycol at concentration ranging from 20% to 80% w/v, glycofurol at concentration ranging from 5% to 50% w/v, glycerol at concentration ranging from 15% to 50% w/v, 15% w/v glycerol+15 w/v glycofurol, 25% w/v propylene glycol+25% w/v glycofurol, propylene glycol (range: 15%-60% w/v)+glycerol (range: 5%-15% w/v), 25% w/v Kleptose® HPB+25% propylene glycol, cremophor RH 40, cremophor EL, solutol HS 15, 40-50% Kleptose® HPB, miglyol 812N, liquid paraffin, polyvinylpyrrolidone K12.
Only four vehicles allowed solubilizing A-5021 at the concentration of 5 mg/mL (0.5% w/v) at close to neutral pH (the pH ranged from 6.98-7.1 1). These vehicles are (% w/v in water): • (i) 80% w/v propylene glycol; • (ii) 50% w/v Kleptose® HPB; • (iii) 60% w/v propylene glycol+15% w/v glycerol; • (iv) 60% w/v propylene glycol+10% w/v glycerol.

[5] = test system: herpes simplex virus type 1 (HSV-1); conditions: in vivo, reported; cited from earlier work
varicella-zoster (VZV) = conditions: in vivo, reported; cited from earlier work

## Nc1nc2c(ncn2C[C@]2(CO)C[C@H]2CO)c(=O)[nH]1 [Formulation A-5021, 2-amino-9-[[(1S,2R)-1,2-bis(hydroxymethyl)cyclopropyl]methyl]-1,9-dihydro-6H-Purin-6-one]
[1]; 80% (v/v) propylene glycol / 20% (v/v) buffer, pH 1, aqueous with cosolvent or surfactant or cyclodextrin, 80% (v/v) propylene glycol in 20% (v/v) buffer (pH 1 1.3), highest solubility
  solubility at 24 h: 8640 µg/mL
[1]; 80% v/v propylene glycol / 20% v/v phosphate buffer, pH 7.4, aqueous with cosolvent or surfactant or cyclodextrin, 80% v/v propylene glycol and 20% v/v phosphate buffer at pH 7.4
  solubility at 24 h: 8180 µg/mL
[1]; pH 2.2, aqueous with cosolvent or surfactant or cyclodextrin, 60% v/v HCl buffer and 40% w/v HPBC, pH 2.2
  solubility at 24 h: 6760 µg/mL
[1]; pH 2.8, aqueous with cosolvent or surfactant or cyclodextrin, acidic pH 2.8 instead of pH 11.3, room temperature
  solubility at 24 h: 8500 µg/mL
[1]; pH 7, aqueous with cosolvent or surfactant or cyclodextrin, 5.7-33.34% v/v propylene glycol, 33.33-40% w/v/v HPBC, 33.34-54.3% v/v buffer, pH 7.0-7.4
  solubility at 24 h: 3280 to 4050 µg/mL
[1]; pH 7, aqueous with cosolvent or surfactant or cyclodextrin, 60% v/v HCl buffer and 40% w/v HPBC, pH 7
  solubility at 24 h: 4910 µg/mL
[1]; pH 12 buffered solutions
  effect on solubility of adding an organic co-solvent: does not improve the solubility
[2]
  antiviral activity: potent and selective antiviral agent
Herpes virus
  inhibition of herpes virus replication: potent inhibitor
[3]
  solubility: poor solubility
[4]; vehicle (i) 80% w/v propylene glycol in water
  solubility: 5000 µg/mL
[4]; vehicle (ii) 50% w/v Kleptose HPB in water
  solubility: 5000 µg/mL
[4]; vehicle (iii) 60% w/v propylene glycol+15% w/v glycerol in water
  solubility: 5000 µg/mL
[4]; vehicle (iv) 60% w/v propylene glycol+10% w/v glycerol in water
  solubility: 5000 µg/mL
[5]
  antiviral activity: potent and selective antiviral agent
varicella-zoster (VZV)
  antiviral activity: potent and selective antiviral agent
